Results taken from ChEMBL document CHEMBL5365429, “Discovery of 5-sulfonyltetrazoles as neuroblastoma differentiation agents” (Bioorg Med Chem Lett, 2023).
Activity calls are given as the source filed them. The calls are words filed in the database; no cut-off is given here.

Columns and labels:
Type in all cases: functional, cell-based
BE(2)-C [1] = test: Induction of neuron differentiation in human BE2C cells assessed as neurite outgrowth by measuring neurite length at 25 uM measured after 4 days; conditions: time 4.0 day
BE(2)-C [2] = test: Induction of neuron differentiation in human BE2C cells assessed as neurite outgrowth by measuring neurite length; conditions: dose 50-200 µM
BE(2)-C [3] = test: Antiproliferative activity against human BE2C cells assessed as reduction in cell viability at 25 uM
BE(2)-C [4] = test: Induction of neuron differentiation in human BE2C cells assessed as neurite outgrowth by measuring neurite length at 25 uM
BE(2)-C [5] = test: Induction of neuron differentiation in human BE2C cells assessed as neurite outgrowth by measuring neurite length at 25 uM by imaging analysis
BE(2)-C [6] = test: Antiproliferative activity against human BE2C cells assessed as reduction in cell viability; conditions: dose 50-200 µM
BE(2)-C [7] = test: Antiproliferative activity against human BE2C cells assessed as reduction in cell viability at 25 uM measured after 4 days; conditions: time 4.0 day

SMILES | Activity (BE(2)-C [1]) | further results
CCSc1nnnn1C | inactive | 
CSc1nnnn1C | inactive | 
C=CCSc1nnnn1C | inactive | 
Cn1nnnc1SCC1CC1 | inactive | 
Cn1nnnc1SCC#C[Si](C)(C)C | inactive | 
CCCSc1nnnn1C | inactive | 
Cn1nnnc1S(=O)(=O)CC1CCC1 | Active | 
Cn1nnnc1S(C)(=O)=O | Active | 
CCCS(=O)(=O)c1nnnn1C | Active | 
CCS(=O)(=O)c1nnnn1C |  | Activity (BE(2)-C [2]): Dose-Dependent Effect; Activity (BE(2)-C [3]): Active; Activity (BE(2)-C [4]): Active; Activity (BE(2)-C [5]): Active; Activity (BE(2)-C [6]): Dose-Dependent Effect
Cn1nnnc1SCC1CCC1 | inactive | 
C=CCS(=O)(=O)c1nnnn1C | Active | Activity (BE(2)-C [7]): Active
